Test results reported in patent US8729097B2, “Quinoline compounds as inhibitors of angiogenesis, human methionine aminopeptidase, and SIRT1, and methods of treating disorders” (The Johns Hopkins University, priority 2008, dated 2014).
Where two headings read alike, the source gives them in different places. Blank lines part the entries; values can stand above or below the compound they belong to.

Tests used:
hMetAP1 = molecular target: T1, hMetAP1 (Homo sapiens, UniProt P53582); test: MetAP enzymatic assay, hMetAP1; format: biochemical; settings: Table 3
T1 construct: made in house

hMetAP2 = molecular target: T2, hMetAP2 (Homo sapiens, UniProt P50579); test: MetAP enzymatic assay, hMetAP2; format: biochemical; settings: Table 3
T2 construct: made in house

HFF = HFF proliferation (selectivity); format: cell-based; settings: Table 3
HUVEC [1] = test: HUVEC proliferation, [3H]-thymidine incorporation assay; format: cell-based, human
Description: (§1) HCC1954 cells were grown in RPMI1640 containing 10% FBS. HUVEC were grown using the EGM-2 bullet kit (Cambrex) as per manufacturer's instructions. The cells were maintained in a humidified incubator adjusted to 5% CO2. For drug screening, 10 mM stock solutions of Johns Hopkins Drug Library were arrayed in 96-well plates and screened at a final concentration of 10 μM. The cell growth was determined using a [^3H]-thymidine incorporation assay. Cells (typically 5,000 cells/well) were seeded in 96-well plates containing 0.2 ml of growth media and allowed to adhere for 24 h. The cells were then treated with drugs for 24 h. Cells were pulsed with 1 μCi [^3H]-thymidine (MP Biomedicals, 6.7 Ci mmol^−1) for 8 h and harvested, upon trypsin treatment, onto glass fiber filters (Wallac, Turku, Finland), from which ^3H counts were determined using a Perkin Elmer MicroBeta plate reader.

[2] = tested on: p53 and Rb pathways in HUVECs; test: Western blot of p53, p21 and Rb in HUVEC; format: cell-based, human
Description: (§2) Cells were lysed by adding 1 volume of 2× Laemmli buffer and were then boiled for 5 min. The samples were separated by SDS-PAGE and transferred to nitrocellulose membrane (Bio-Rad). Proteins were detected using primary antibodies for p53 (Santa Cruz), met-14-3-3γ (Novus), p21 (Santa Cruz), Rb (Santa Cruz), MetAP2 (Hu, X. et al (2006) Proc. Natl. Acad. Sci. U.S.A. 103, 18148-18153), SirT1 (Santa Cruz), acetyl-p53-K382 (Abeam), acetyl-tubulin (Sigma), histone-H3 (Santa Cruz), acetyl-H3 (Santa Cruz) and α-tubulin (TU-02, Santa Cruz) followed by the incubation with horseradish peroxidase (HRP)-conjugated anti-mouse or anti-rabbit antibodies (Santa Cruz) and enhanced chemiluminescence (ECL, Amersham).

[3] = tested on: breast cancer cells as well as human umbilical vein endothelial cells (HUVECs); test: Cell proliferation assay, breast cancer cells and HUVECs; format: cell-based
Description: Cell proliferation assay was performed using several different kinds of breast cancer cells as well as human umbilical vein endothelial cells (HUVECs). […].
as §1

HUVEC [4] = test: Senescence associated-β-galactosidase (SA-β-gal) staining in HUVEC; format: cell-based, human
Description: Cells in 6-well plates were washed with PBS and fixed with 3% paraformaldehyde. After washing with PBS, the cells were incubated for 24 h at 37° C. (without CO2, protected from light) in freshly prepared SA-β-gal staining solution containing 1 mg/ml 5-bromo-4-chloro-3-indolyl β-D-galactopyranoside (X-gal), 5 mM potassium ferrocyanide, 5 mM potassium ferricyanide, 150 mM NaCl, 2 mM MgCl2 and 40 mM citric acid, titrated with NaH2PO4 to pH 6.0. SA-β-gal solution was then removed and the cells were washed with PBS. The stained cells were observed under a microscope.

[5] = tested on: Saccharomyces cerevisiae strain BY4743; test: Yeast growth assay (wild type, map1Δ, map2Δ); format: cell-based; settings: drug on paper disc
From the text: Saccharomyces cerevisiae strain BY4743 (MATa/α his3Δ1/his3Δ1 leu2Δ0/leu2Δ0 lys2Δ0/LYS2) and its isogenic haploid derivatives for MetAP1 (map1Δ) and MetAP2 (map2Δ) deletion mutants were used for yeast growth assays. Drugs dissolved in DMSO were spotted onto sterile filter disks and dried before experiments. Exponentially growing yeast strains were mixed with top agar and plated on YPD (1% yeast extract/2% peptone/2% glucose) plates. The filter disks were then placed on the YPD plates containing yeasts and the incubation was continued for 48 h at 30° C.

[6] = tested on: N-terminal methionine processing of 14-3-3γ by hMetAP2; test: N-terminal methionine processing of 14-3-3γ in HUVEC (Western blot); format: cell-based, human; settings: 10 nM
Description: 14-3-3γ is known as a substrate of eukaryotic MetAPs and the inhibition of either isotype of MetAPs was reported to increase the N-terminal methionyl form of the protein.
Cells were lysed by adding 1 volume of 2× Laemmli buffer and were then boiled for 5 min. The samples were separated by SDS-PAGE and transferred to nitrocellulose membrane (Bio-Rad).

HUVEC [7] = test: Endothelial cell tube formation assay; format: cell-based, human; settings: Matrigel; EX527 1 μM, TNP470 10 nM
Description: HUVEC were seeded on a 96-well plate (2×10^4 cells/well) coated with Matrigel. The cells were then incubated for 16˜18 h in a humidified 5% CO2 incubator at 37° C. The cells were washed carefully with PBS once and Calcein-AM solution in PBS was then added to a final concentration of 2 μM. After incubation for an additional 30 min, the cells were washed carefully with PBS and observed under a fluorescence microscope (485 nm excitation/520 nm emission). The tube formed was quantified using AngioQuant v1.33 (The MathWorks).

[8] = tested on: acetylation of p53 (K382), α-tubulin and histone-H3; test: Acetylation status of sirtuin substrates in HUVEC (Western blot); format: cell-based, human; settings: HUVEC; for acetylation status of tubulin or histone-H3: 6 h or 20 h
Description: as §2

[9] = in the presence of Co^2+, read-out: hMetAP1 Co^2+ IC50
[10] = in the presence of Mn^2+, read-out: hMetAP1 Mn^2+ IC50
[11] = Table 3, read-out: Selectivity HUVEC IC50
[12] = Homo sapiens, HUVEC, Table 4, read-out: HUVEC IC50
[13] = 72 h, valproic acid 0.1 mM, TNP-470 20 nM

T2 sequence (P50579 whole entry): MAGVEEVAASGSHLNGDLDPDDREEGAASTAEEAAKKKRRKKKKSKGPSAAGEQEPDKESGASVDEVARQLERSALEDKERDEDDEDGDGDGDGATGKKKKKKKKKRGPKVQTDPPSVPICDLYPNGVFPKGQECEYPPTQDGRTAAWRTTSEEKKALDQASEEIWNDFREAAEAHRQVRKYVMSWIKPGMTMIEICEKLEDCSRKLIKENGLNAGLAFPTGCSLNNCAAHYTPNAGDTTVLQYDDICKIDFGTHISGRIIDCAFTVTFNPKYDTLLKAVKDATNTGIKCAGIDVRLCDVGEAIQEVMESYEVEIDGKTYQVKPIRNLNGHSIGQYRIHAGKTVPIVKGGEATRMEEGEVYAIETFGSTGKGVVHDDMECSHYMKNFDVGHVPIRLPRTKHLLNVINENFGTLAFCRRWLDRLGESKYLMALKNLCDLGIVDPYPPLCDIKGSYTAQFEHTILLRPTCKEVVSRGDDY

- IC50 (hMetAP1; [9]): > 50 µM
- IC50 (hMetAP1; [10]): > 50 µM
- IC50 (hMetAP2; in the presence of Co^2+, read-out: hMetAP2 Co^2+ IC50): 45.7 µM
- IC50 (hMetAP2; in the presence of Mn^2+, read-out: hMetAP2 Mn^2+ IC50): 1.8 µM
Compound: O=C(Nc1cc(F)cc(F)c1)Oc1ccc(Cl)c2cccnc12 [Entry 4g, 5-Chloro-8-quinolyl-N-(3,5-difluorophenyl)-carbamate]
- IC50 (HFF): 16.1 µM

Compound: O=C(NCCCl)Oc1ccc(Cl)c2cccnc12 [Entry 4h, 5-Chloro-8-quinolyl-N-(2-chloroethyl)-carbamate]
- IC50 (HUVEC [1]; [11]): 2.3 µM
- IC50 (HFF): 8.4 µM

Compound: O=C(NCCCl)Oc1c(Cl)cc(Cl)c2cccnc12 [Entry 4i, 5,7-Dichloro-8-quinolyl-N-(2-chloroethyl)-carbamate]
- IC50 (hMetAP1; [9]): > 50 µM
- IC50 (hMetAP1; [10]): > 50 µM
- IC50 (HUVEC [1]; [11]): 2.4 µM
- IC50 (HFF): 11.1 µM

Compound: Cc1ccc2c([N+](=O)[O-])cc([N+](=O)[O-])c(O)c2n1 [Entry 5b, 2-Methyl-5,7-dinitro-8-hydroxy-quinoline]
- IC50 (HUVEC [1]; [12]): 17.3 µM

Compound: CC(C)(C)OC(=O)Oc1ccc([N+](=O)[O-])c2cccnc12 [Entry 5c, 5-Nitro-8-tert-butoxycarbonyloxyquinoline]
- IC50 (HUVEC [1]; [12]): 0.29 µM

Compound: CCOC(=O)COc1ccc([N+](=O)[O-])c2cccnc12 [Entry 5d, Ethyl 1-(5-Nitro-quinolin-8-yloxy)-acetate]
- IC50 (HUVEC [1]; Table 4, read-out: HUVEC IC50): 7.3 µM

Compound: NC(=O)COc1ccc([N+](=O)[O-])c2cccnc12 [Entry 5e, 1-(5-Nitro-quinolin-8-yloxy)-acetamide]
- IC50 (HUVEC [1]; Table 4, read-out: HUVEC IC50): 6.3 µM

Compound: CO[C@@H]1[C@H](OC(=O)NC(=O)CCl)CC[C@]2(CO2)[C@H]1[C@@]1(C)O[C@@H]1CC=C(C)C [TNP-470]
- Rb hyperphosphorylation ([2]; 8% SDS-PAGE): inhibited its hyperphosphorylation
- total amount of Rb protein ([2]; 12% SDS-PAGE): increased the total amount of Rb protein
- endothelial selectivity over other types of cancer cell lines [3]: around 1,000 fold
- premature senescence in HUVEC (HUVEC [4]; [13]): did not induce premature senescence
- premature senescence in HUVEC (HUVEC [4]; 5 days, single compound or drug combination): did not
- growth of MetAP-1 deletion mutant (map1Δ) ([5]; map1Δ): significantly inhibited
- growth of MetAP-2 deletion mutant ([5]; map2Δ): did not affect the growth
- growth of wild-type yeast ([5]; wild type): did not inhibit the yeast growth
- processing of 14-3-3γ by hMetAP2 [6]: completely blocked
- HUVEC tube formation (HUVEC [7]): did not inhibit tube formation

Compound: CC(/C=C/C(=O)NO)=C\[C@@H](C)C(=O)c1ccc(N(C)C)cc1 [TSA]
- acetylation status of tubulin or histone-H3 [8]: induced hyper-acetylation
- p53 acetylation ([8]; early time point): increased p53 acetylation

Compound: CC(NC(=O)c1ccccc1/N=C/c1c(O)ccc2ccccc12)c1ccccc1 (stereo not drawn) [sirtinol]
- acetylation status of tubulin or histone-H3 [8]: induced hyper-acetylation

- premature senescence in HUVEC (HUVEC [4]; [13]): induced premature senescence
- reversibility of senescence (HUVEC [4]; 72 h treatment, then fresh media for an additional 48 h): reversed their senescence state
Compound: CCCC(CCC)C(=O)O [valproic acid]
